Results taken from patent US20230096145A1, “METHODS OF CONTROLLING OR PREVENTING INFESTATION OF PLANTS BY THE PHYTOPATHOGENIC MICROORGANISM CORYNESPORA CASSIICOLA” (SYNGENTA CROP PROTECTION AG, priority 2020, published 2023).

System: Corynespora cassiicola
Assay: Corynespora cassiicola liquid culture growth inhibition (microtiter plate, PDB)
Format: cell-based
Settings: compared to untreated control, photometric at 620 nm after 3-4 days at 24 C
Protocol: Conidia of the fungus from cryogenic storage were directly mixed into nutrient broth (PDB potato dextrose broth). A DMSO solution of the test compounds was placed into a microtiter plate (96-well format) and the nutrient broth containing the fungal spores was added to it. The test plates were incubated at 24 C and the inhibition of growth (% control of Corynespora cassiicola) was determined photometrically after 3-4 days at 620 nm. The activity of a compound is derived by comparing the inhibition of growth in the treated test solution to the growth in the untreated check. The concentration of the compounds was 6.7, 2.2, 0.74, 0.25, 0.082 and 0.027 ppm.

Q: With Cc1ccc2c(C3=NC(C)(C)C(F)(F)c4cc(F)ccc43)cnn2c1C [Compound 5] as the compound, how does the inhibition at 6.7 ppm read?
A: The inhibition at 6.7 ppm was no less than 70%.

Q: Which inhibition at 6.7 ppm does the source give for Cc1ccc2c(C3=NC(C)(C)C(F)(F)c4c(F)cccc43)cnn2c1C [Compound 4] here?
A: Its inhibition at 6.7 ppm is no less than 70%.

Q: Which inhibition at 6.7 ppm does the source give for Cc1ccc2c(C3=NC(C)(C)C(F)(F)c4ccccc43)cnn2c1C [Compound 1] here?
A: Its inhibition at 6.7 ppm is no less than 70%.

Q: How did the inhibition at 6.7 ppm turn out when Cc1ccc2c(C3=NC(C)(C)C(F)(F)c4ccccc43)cnn2c1 [Compound 3] was run?
A: Its inhibition at 6.7 ppm is no less than 70%.

Q: How did the inhibition at 6.7 ppm turn out when Cc1cccc2c(C3=NC(C)(C)C(F)(F)c4ccccc43)cnn12 [Compound 2] was run?
A: The inhibition at 6.7 ppm was no less than 70%.
